This is an account of results in PMC6066978, “Chronic Intermittent Hypoxia-Induced Vascular Dysfunction in Rats is Reverted by N-Acetylcysteine Supplementation and Arginase Inhibition” (Frontiers in Physiology, 2018).

This assay concerns the target arginase. The experiment in a line: arginase activity (urea production, ISPF colorimetric) in human placental homogenate. Format: biochemical.

What is called Ki is a dissociation constant, usually derived from enzyme kinetics or from competition with a known ligand. A low value points to a stronger hold on the target. Compound `N[C@@H](CCCCB(O)O)C(=O)O` [ABH, 2(S)-amino-6-boronohexanoic acid] registered a Ki of 4.78 ± 1.76 µM.
